Experimental data: ChEMBL document CHEMBL1201862, “PubChem BioAssay data set” (2004)
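The compound was tested at five concentrations on cells cultured in 96-well plates, with a 48-hour exposure period. GI50 = concentration required for 50% inhibition of growth.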 Calls of active or inactive are those of the source. Rule as the data show it: active = GI50 up to about 1.1 µM and inactive = higher.

Legend:
Assay in all cases: NCI anticancer screen, dose series, 48 h
NCI/ADR-RES = system: NCI/ADR-RES
COLO 205 = system: COLO 205
SW-620 = system: SW-620
KM12 = system: KM12
UACC-62 = system: UACC-62
T47D = system: T47D
UO-31 = system: UO-31
A549 = system: A549
MDA-N = system: MDA-N
OVCAR-5 = system: OVCAR-5
SK-MEL-5 = system: SK-MEL-5
ACHN = system: ACHN
SNB-75 = system: SNB-75
HOP-92 = system: HOP-92
OVCAR-3 = system: OVCAR-3
MOLT-4 = system: MOLT-4
NCI-H226 = system: NCI-H226
OVCAR-4 = system: OVCAR-4
PC-3 = system: PC-3
HCT-116 = system: HCT-116
MDA-MB-435 = system: MDA-MB-435
786-0 = system: 786-0
NCI-H23 = system: NCI-H23
OVCAR-8 = system: OVCAR-8
MDA-MB-231 = system: MDA-MB-231
UACC-257 = system: UACC-257
IGROV-1 = system: IGROV-1
Malme-3M = system: Malme-3M
EKVX = system: EKVX
SN12C = system: SN12C
HT-29 = system: HT-29
TK-10 = system: TK-10
RXF 393 = system: RXF 393
SNB-19 = system: SNB-19
SF-539 = system: SF-539
CCRF-CEM = system: CCRF-CEM
SF-268 = system: SF-268
Hs-578T = system: Hs-578T
SK-OV-3 = system: SK-OV-3
DU-145 = system: DU-145
CAKI-1 = system: CAKI-1
U-251 = system: U-251
RPMI-8226 = system: RPMI-8226
M14 = system: M14
A498 = system: A498
SF-295 = system: SF-295
MCF7 = system: MCF7
HCT-15 = system: HCT-15
HCC 2998 = system: HCC 2998
SK-MEL-28 = system: SK-MEL-28
LOX IMVI = system: LOX IMVI
BT-549 = system: BT-549
HOP-62 = system: HOP-62
SK-MEL-2 = system: SK-MEL-2
NCI-H522 = system: NCI-H522
NCI-H460 = system: NCI-H460
HL-60 = system: HL-60
K562 = system: K562

Measured: GI50

O=C(c1ccccc1)n1cc(-c2ccccc2)c2c(=O)nc[nH]c21
inactive: NCI/ADR-RES > 100 µM | COLO 205 > 100 µM | SW-620 > 100 µM | KM12 > 100 µM | UACC-62 > 100 µM | T47D > 100 µM | UO-31 > 100 µM | A549 > 100 µM | MDA-N > 100 µM | OVCAR-5 > 100 µM | SK-MEL-5 > 100 µM | ACHN > 100 µM | SNB-75 17.4 µM | HOP-92 > 100 µM | OVCAR-3 > 100 µM | MOLT-4 > 100 µM | NCI-H226 > 100 µM | OVCAR-4 > 100 µM | PC-3 > 100 µM | HCT-116 > 100 µM | MDA-MB-435 > 100 µM | 786-0 > 100 µM | NCI-H23 > 100 µM | OVCAR-8 > 100 µM | MDA-MB-231 > 100 µM | UACC-257 > 100 µM | IGROV-1 > 100 µM | Malme-3M > 100 µM | EKVX > 100 µM | SN12C > 100 µM | HT-29 > 100 µM | TK-10 > 100 µM | RXF 393 > 100 µM | SNB-19 > 100 µM | SF-539 > 100 µM | CCRF-CEM > 100 µM | SF-268 > 100 µM | Hs-578T > 100 µM | SK-OV-3 > 100 µM | DU-145 > 100 µM | CAKI-1 > 100 µM | U-251 > 100 µM | RPMI-8226 > 100 µM | M14 > 100 µM | A498 > 100 µM | SF-295 > 100 µM | MCF7 > 100 µM | HCC 2998 > 100 µM | SK-MEL-28 > 100 µM | LOX IMVI > 100 µM | BT-549 > 100 µM | HOP-62 > 100 µM | SK-MEL-2 > 100 µM | NCI-H522 > 100 µM
> 100 µM: HCT-15

CC(C)C1CC(CO)(CNc2nc(N)nc(Cl)c2C=O)C1 (centres undefined)
inactive: NCI/ADR-RES 6.03 µM | COLO 205 12.3 µM | SW-620 6.15 µM | NCI-H460 8.22 µM | KM12 7.35 µM | UACC-62 2 µM | HL-60 1.57 µM | T47D 6.01 µM | UO-31 6.27 µM | A549 12.9 µM | MDA-N 2.85 µM | OVCAR-5 17.1 µM | SK-MEL-5 6.89 µM | ACHN 5.35 µM | K562 2.56 µM | SNB-75 7.87 µM | HOP-92 2.28 µM | OVCAR-3 3.47 µM | MOLT-4 2.15 µM | NCI-H226 8.95 µM | OVCAR-4 4.81 µM | PC-3 2.1 µM | HCT-116 2.84 µM | MDA-MB-435 2.23 µM | 786-0 31.3 µM | NCI-H23 2.22 µM | OVCAR-8 2.75 µM | MDA-MB-231 2.45 µM | UACC-257 2.49 µM | IGROV-1 1.89 µM | Malme-3M 11.1 µM | EKVX 4.51 µM | SN12C 3.75 µM | HT-29 2.48 µM | TK-10 > 66.8 µM | RXF 393 7.93 µM | SNB-19 6.04 µM | SF-539 13.7 µM | CCRF-CEM 2.34 µM | SF-268 4.79 µM | Hs-578T 4.38 µM | SK-OV-3 6.79 µM | DU-145 14.6 µM | CAKI-1 2.17 µM | U-251 3.35 µM | RPMI-8226 11 µM | M14 1.77 µM | A498 15.1 µM | SF-295 16.6 µM | MCF7 10.3 µM | HCC 2998 1.97 µM | SK-MEL-28 1.88 µM | LOX IMVI 2.04 µM | BT-549 11.4 µM | HOP-62 18.8 µM | SK-MEL-2 1.8 µM
4.43 µM: HCT-15
active: NCI-H522 0.604 µM

OCCN(CO)CO
> 100 µM: HCT-15
inactive: NCI/ADR-RES > 100 µM | COLO 205 > 100 µM | SW-620 > 100 µM | NCI-H460 > 100 µM | KM12 > 100 µM | UACC-62 > 100 µM | T47D > 100 µM | UO-31 > 100 µM | A549 > 100 µM | MDA-N > 100 µM | SK-MEL-5 > 100 µM | ACHN > 100 µM | K562 > 100 µM | SNB-75 > 100 µM | HOP-92 > 100 µM | OVCAR-3 > 100 µM | NCI-H226 > 100 µM | OVCAR-4 > 100 µM | PC-3 > 100 µM | HCT-116 > 100 µM | MDA-MB-435 > 100 µM | 786-0 91.4 µM | NCI-H23 > 100 µM | OVCAR-8 > 100 µM | MDA-MB-231 > 100 µM | UACC-257 > 100 µM | IGROV-1 > 100 µM | Malme-3M > 100 µM | EKVX > 100 µM | SN12C > 100 µM | HT-29 > 100 µM | TK-10 > 100 µM | RXF 393 > 100 µM | SNB-19 > 100 µM | SF-539 > 100 µM | SF-268 > 100 µM | Hs-578T > 100 µM | SK-OV-3 > 100 µM | DU-145 > 100 µM | CAKI-1 > 100 µM | U-251 > 100 µM | RPMI-8226 86.5 µM | M14 > 100 µM | A498 > 100 µM | SF-295 > 100 µM | MCF7 > 100 µM | HCC 2998 > 100 µM | SK-MEL-28 > 100 µM | BT-549 > 100 µM | HOP-62 > 100 µM | SK-MEL-2 > 100 µM | NCI-H522 > 100 µM

C/C(=N/NC(=S)Nc1ccc(C)cc1)c1ccccn1
0.0221 µM: HCT-15
active: NCI/ADR-RES < 0.0152 µM | COLO 205 < 0.0166 µM | SW-620 < 0.0164 µM | NCI-H460 0.263 µM | KM12 0.122 µM | UACC-62 0.105 µM | HL-60 < 0.0132 µM | T47D 0.049 µM | UO-31 0.266 µM | A549 0.5 µM | MDA-N 1.1 µM | OVCAR-5 0.0493 µM | SK-MEL-5 0.12 µM | ACHN 0.0515 µM | K562 < 0.0127 µM | HOP-92 0.719 µM | OVCAR-3 0.0179 µM | MOLT-4 < 0.0122 µM | NCI-H226 0.0908 µM | PC-3 < 0.0153 µM | HCT-116 < 0.0146 µM | MDA-MB-435 1.07 µM | 786-0 0.0427 µM | NCI-H23 < 0.0185 µM | OVCAR-8 0.0258 µM | MDA-MB-231 < 0.0154 µM | UACC-257 < 0.0163 µM | IGROV-1 < 0.0155 µM | Malme-3M 0.505 µM | EKVX 0.0601 µM | SN12C 0.192 µM | HT-29 < 0.0366 µM | TK-10 0.19 µM | RXF 393 0.78 µM | SF-539 0.815 µM | CCRF-CEM < 0.0124 µM | SF-268 0.114 µM | Hs-578T 0.859 µM | SK-OV-3 0.0363 µM | DU-145 0.794 µM | CAKI-1 0.0968 µM | U-251 0.125 µM | RPMI-8226 < 0.0156 µM | M14 0.0446 µM | SF-295 0.193 µM | MCF7 0.0146 µM | LOX IMVI 0.0162 µM | HOP-62 0.029 µM | NCI-H522 0.12 µM
inactive: SNB-75 1.26 µM | OVCAR-4 1.47 µM | SNB-19 2.29 µM | A498 2.51 µM | HCC 2998 3.48 µM | SK-MEL-28 2.1 µM | BT-549 4.38 µM | SK-MEL-2 1.41 µM
